“Also recorded” adds a separate entry of the source.
Assays:
[1] = Relaxation measurements of gadolinium(III) complex solutions; format: physicochemical; conditions: gadolinium(III) complex in solution; at 10 MHz
Protocol: Solution was stirred for 1 h at room temperature and pH was set to approx. pH 7 by careful addition of solid KOH. Thus prepared solution as well as other solutions of different concentration which were prepared by a similar approach (all containing known amount of water and gadolinium(III)) were used for relaxation measurements. The solutions gave relaxivity 7.86 mmol^−1 s^−1 (at 10 MHz).
Solution of gadolinium(III) complex of compound 1 for relaxation measurements were prepared similarly to Example 51. The solutions gave relaxivity 7.54 mmol-1 s^−1 (at 10 MHz). Exchange half-life of coordinated water molecule 70 ns was determined (from temperature dependence of ^17O NMR parameters).

[2] = Formation of ^90Y-yttrium complex, radiochemical yield by TLC/HPLC; format: physicochemical; conditions: reaction time 0 min, [Y] = 1,2 · 10^−3 mol/l, ratio of ligand: Y = 1:1, pH = 5.5
[3] = as above; format: physicochemical
Protocol: Purified DO3A-P^BnNH2 was dissolved in demineralised water at a concentration of 9×10^−5 mol/l. 0.1 ml of this solution were transferred into a small reaction vial (PE). 0.1 ml ^90Y-yttrium chloride (YCl3) in 0.1 M HCl and 0.1 ml ammonium acetate buffer, pH 5.7, were added. The reaction solutions were mixed well. pH values were measured continuously while preparing the solution. 24 identical solutions were prepared accordingly and stored at 25° C. and 37° C. respectively.
Samples were taken after 15 min, 30 min, 45 min, 60 min, 90 min and 120 min and analyzed by thin layer chromatography using silica gel (POLYGRAM SIL G/UV254) or, preferably, paper (Whatman No. 1) as solid phase. TLC was run using either solvent I: 0.1 N ammonium acetate solution or solvent II: 3% sodium chloride solution as developing solution. In parallel, samples (20 μl) were analyzed by gel filtration using HPLC. The HPLC-system comprised a gamma detector (Berthold LB 506) and a UV/VIS spectrometer (Waters 486) installed in two flow through cells, respectively.
Temperature- and time-dependent studies have shown a very short reaction time for the complex formation of a ^90Y-Yttrium-DO3A-complex.
Furthermore, the effect of pH and ligand concentration on radiochemical yield was evaluated. Table 5 summarizes the results relating to the variation of pH between pH 2.0 and pH 8.9 while maintaining a constant ratio of DO3A-P^BnNH2 and Y of 3:1 and a reaction time of 60 min at 25° C. Accordingly, best labeling results are achieved at pH values of 4.9-8.0. Table 6 summarizes the results relating to the variation of the ligand concentration DO3A-P^BnNH2: Y between 1:1 up to 7:1 while maintaining a constant pH range (pH 5.2) and reaction time of 60 min at 25° C.

[4] = Stability of complex in human plasma; format: in vitro ADME; conditions: for High molecular weight form / Low molecular weight form: human plasma, 37° C.
Protocol: 4. Determination of the stability of 88Y-DO3A-P^BnNH2 complex in human plasma
4. Stability of the ^88Y-DO3A-P^BnNH2 complex was determined in human plasma at 37° C. over 14 days using standardised in vitro conditions. […] Dissociation of the radionuclide ^88Y-yttrium from the ^88Y-DO3A-P^BnNH2 complex and binding to plasma proteins (predominantly to complex forming transferrin, a protein which prefers to form complexes with trivalent elements such as Fe^3+, Co^3+ but also Y^3+) was shown only for <2% of the total activity administered to human plasma.

[5] = Elimination (cumulative excretion of radioactivity) of ^88Y-DO3A-P^BnNH2 complex; format: in vivo; conditions: Wistar SPF rats
Protocol: 2. Determination of elimination (mode and rate) of ^88Y-DO3A-P^BnNH2 complex from the organism
2. Mode and rate of elimination of ^88Y-DO3A-P^BnNH2 complex from the organism as determined by cumulative excretion of radioactivity in intervals of 0-2 h and 0-24 h respectively after intravenous injection of ^88Y-DO3A-P^BnNH2 complex into the vena saphena of Wistar SPF rats are summarized in Table 4.

human plasma proteins = assay: In vitro binding to human plasma proteins (equilibration dialysis or ultrafiltration); format: in vitro ADME; conditions: 37° C.
Protocol: 3. Determination of the in vitro binding capacity of ^88Y-DO3A-P^BnNH2 complex to human plasma proteins
3. Binding of the 88Y-DO3A-P^BnNH2 complex to human plasma proteins was evaluated at 37° C. using equilibration dialysis or ultrafiltration. 10.2±2.3% or 3.7±3.2% were bound to plasma proteins, respectively. Pharmacokinetically, reversible binding is of no importance.

Gadolinium(III) Complex of DO3A-P [gadolinium(III) complex of compound 1]
relaxivity [1]: 7.54 mmol⁻¹ s⁻¹

Nc1ccc(CP(=O)([O-])CN2CCN(CC(=O)[O-])CCN(CC(=O)[O-])CCN(CC(=O)[O-])CC2)cc1.[90Y+3] [^90Y-DO3A-P^BnNH2-complex]
radiochemical yield ([2]; 25° C.): 88% | radiochemical yield ([2]; 37° C.): 88% | radiochemical yield ([3]; pH 2.0, [Y] = 1.5 · 10^−5 mol/l, ratio of ligand: Y = 3:1, reaction time 60 min, 25° C.): 12% | radiochemical yield ([3]; pH 3.0, [Y] = 1.5 · 10^−5 mol/l, ratio of ligand: Y = 3:1, reaction time 60 min, 25° C.): 54% | radiochemical yield ([3]; pH 3.9, [Y] = 1.5 · 10^−5 mol/l, ratio of ligand: Y = 3:1, reaction time 60 min, 25° C.): 77% | radiochemical yield ([3]; pH 4.4, [Y] = 1.5 · 10^−5 mol/l, ratio of ligand: Y = 3:1, reaction time 60 min, 25° C.): 93% | radiochemical yield ([3]; pH 4.9, [Y] = 1.5 · 10^−5 mol/l, ratio of ligand: Y = 3:1, reaction time 60 min, 25° C.): 97% | radiochemical yield ([3]; pH 5.6, [Y] = 1.5 · 10^−5 mol/l, ratio of ligand: Y = 3:1, reaction time 60 min, 25° C.): 95% | radiochemical yield ([3]; pH 6.0, [Y] = 1.5 · 10^−5 mol/l, ratio of ligand: Y = 3:1, reaction time 60 min, 25° C.): 93% | radiochemical yield ([3]; pH 6.2, [Y] = 1.5 · 10^−5 mol/l, ratio of ligand: Y = 3:1, reaction time 60 min, 25° C.): 97% | radiochemical yield ([3]; pH 6.6, [Y] = 1.5 · 10^−5 mol/l, ratio of ligand: Y = 3:1, reaction time 60 min, 25° C.): 98% | radiochemical yield ([3]; pH 6.8, [Y] = 1.5 · 10^−5 mol/l, ratio of ligand: Y = 3:1, reaction time 60 min, 25° C.): 98% | radiochemical yield ([3]; pH 8.0, [Y] = 1.5 · 10^−5 mol/l, ratio of ligand: Y = 3:1, reaction time 60 min, 25° C.): 98% | radiochemical yield ([3]; pH 8.9, [Y] = 1.5 · 10^−5 mol/l, ratio of ligand: Y = 3:1, reaction time 60 min, 25° C.): 91% | radiochemical yield ([3]; ratio of ligand:Y 1:1, [Y] = 1.2 · 10^−3 mol/l, pH = 5.2, reaction time 60 min, 25° C.): 94% | radiochemical yield ([3]; ratio of ligand:Y 2:1, [Y] = 1.2 · 10^−3 mol/l, pH = 5.2, reaction time 60 min, 25° C.): 97% | radiochemical yield ([3]; ratio of ligand:Y 3:1, [Y] = 1.2 · 10^−3 mol/l, pH = 5.2, reaction time 60 min, 25° C.): 98% | radiochemical yield ([3]; ratio of ligand:Y 4:1, [Y] = 1.2 · 10^−3 mol/l, pH = 5.2, reaction time 60 min, 25° C.): 99% | radiochemical yield ([3]; ratio of ligand:Y 5:1, [Y] = 1.2 · 10^−3 mol/l, pH = 5.2, reaction time 60 min, 25° C.): 97% | radiochemical yield ([3]; ratio of ligand:Y 6:1, [Y] = 1.2 · 10^−3 mol/l, pH = 5.2, reaction time 60 min, 25° C.): 99% | radiochemical yield ([3]; ratio of ligand:Y 7:1, [Y] = 1.2 · 10^−3 mol/l, pH = 5.2, reaction time 60 min, 25° C.): 97% | radiochemical yield ([3]; reaction time 15 min, 25° C., [Y] = 1,2 · 10^−3 mol/l, ratio of ligand: Y = 1:1, pH = 5.5): 97% | radiochemical yield ([3]; reaction time 15 min, 37° C., [Y] = 1,2 · 10^−3 mol/l, ratio of ligand: Y = 1:1, pH = 5.5): 98% | radiochemical yield ([3]; reaction time 30 min, 25° C., [Y] = 1,2 · 10^−3 mol/l, ratio of ligand: Y = 1:1, pH = 5.5): 97% | radiochemical yield ([3]; reaction time 30 min, 37° C., [Y] = 1,2 · 10^−3 mol/l, ratio of ligand: Y = 1:1, pH = 5.5): 98% | radiochemical yield ([3]; reaction time 45 min, 25° C., [Y] = 1,2 · 10^−3 mol/l, ratio of ligand: Y = 1:1, pH = 5.5): 97% | radiochemical yield ([3]; reaction time 45 min, 37° C., [Y] = 1,2 · 10^−3 mol/l, ratio of ligand: Y = 1:1, pH = 5.5): 98% | radiochemical yield ([3]; reaction time 60 min, 25° C., [Y] = 1,2 · 10^−3 mol/l, ratio of ligand: Y = 1:1, pH = 5.5): 97% | radiochemical yield ([3]; reaction time 60 min, 37° C., [Y] = 1,2 · 10^−3 mol/l, ratio of ligand: Y = 1:1, pH = 5.5): 97% | radiochemical yield ([3]; reaction time 90 min, 25° C., [Y] = 1,2 · 10^−3 mol/l, ratio of ligand: Y = 1:1, pH = 5.5): 98% | radiochemical yield ([3]; reaction time 90 min, 37° C., [Y] = 1,2 · 10^−3 mol/l, ratio of ligand: Y = 1:1, pH = 5.5): 98% | radiochemical yield ([3]; reaction time 120 min, 25° C., [Y] = 1,2 · 10^−3 mol/l, ratio of ligand: Y = 1:1, pH = 5.5): 98% | radiochemical yield ([3]; reaction time 120 min, 37° C., [Y] = 1,2 · 10^−3 mol/l, ratio of ligand: Y = 1:1, pH = 5.5): 99%

Nc1ccc(CP(=O)([O-])CN2CCN(CC(=O)[O-])CCN(CC(=O)[O-])CCN(CC(=O)[O-])CC2)cc1.[88Y+3] [^88Y-DO3A-P^BnNH2 complex]
Dissociation of the radionuclide ^88Y-yttrium from the complex and binding to plasma proteins ([4]; human plasma at 37° C. over 14 days): < 2 % of the total activity administered to human plasma | Stability of the complex in human plasma ([4]; human plasma at 37° C. over 14 days, standardised in vitro conditions): highly stable; also recorded: high stability | High molecular weight form ([4]; Day 0, Experiment No. 1): 0.28% | Low molecular weight form ([4]; Day 0, Experiment No. 1): 99.72% | High molecular weight form ([4]; Day 0, Experiment No. 2): 0.10% | Low molecular weight form ([4]; Day 0, Experiment No. 2): 99.90% | High molecular weight form ([4]; Day 3, Experiment No. 1): 0.75% | Low molecular weight form ([4]; Day 3, Experiment No. 1): 99.25% | High molecular weight form ([4]; Day 3, Experiment No. 2): 0.56% | Low molecular weight form ([4]; Day 3, Experiment No. 2): 99.44% | High molecular weight form ([4]; Day 5, Experiment No. 1): 0.72% | Low molecular weight form ([4]; Day 5, Experiment No. 1): 99.28% | High molecular weight form ([4]; Day 5, Experiment No. 2): 0.91% | Low molecular weight form ([4]; Day 5, Experiment No. 2): 99.09% | High molecular weight form ([4]; Day 7, Experiment No. 1): 0.79% | Low molecular weight form ([4]; Day 7, Experiment No. 1): 99.21% | High molecular weight form ([4]; Day 7, Experiment No. 2): 0.73% | Low molecular weight form ([4]; Day 7, Experiment No. 2): 99.27% | High molecular weight form ([4]; Day 10, Experiment No. 1): 0.91% | Low molecular weight form ([4]; Day 10, Experiment No. 1): 99.09% | High molecular weight form ([4]; Day 10, Experiment No. 2): 1.08% | Low molecular weight form ([4]; Day 10, Experiment No. 2): 98.92% | High molecular weight form ([4]; Day 12, Experiment No. 1): 1.17% | Low molecular weight form ([4]; Day 12, Experiment No. 1): 98.83% | High molecular weight form ([4]; Day 12, Experiment No. 2): 1.35% | Low molecular weight form ([4]; Day 12, Experiment No. 2): 98.65% | High molecular weight form ([4]; Day 14, Experiment No. 1): 1.68% | Low molecular weight form ([4]; Day 14, Experiment No. 1): 98.32% | High molecular weight form ([4]; Day 14, Experiment No. 2): 1.80% | Low molecular weight form ([4]; Day 14, Experiment No. 2): 98.20% | Cumulative excretion of radioactivity ([5]; Faeces, interval 0-24 h after intravenous injection): 3.6 ± 2.8% | Cumulative excretion of radioactivity ([5]; Urine, interval 0-2 h after intravenous injection): 79.4 ± 5.2% | Cumulative excretion of radioactivity ([5]; Urine, interval 0-24 h after intravenous injection): 84.3 ± 5.0% | bound to plasma proteins (human plasma proteins; equilibration dialysis): 10.2±2.3% | bound to plasma proteins (human plasma proteins; ultrafiltration): 3.7±3.2%
